These results are taken from PubChem BioAssay AID504780 (National Center for Advancing Translational Sciences (NCATS), 2011).

Values after ≈ are worked out from the molar mass of the structure shown.

The data set has as its system kinetic aqueous solubility, PBS pH 7.4, LC-UV/MS. Description: Identifying a Potential Treatment of Ataxia-Telangiectasia: Solubility Profiling. Particulars: stronger effect = higher value. From the text:
Ataxia-telangiectasia (A-T) is a devastating and progressive disease for which, there is no cure. Although A-T is a multisystem disease, it is stereotyped characterized by its neurological symptoms such as truncal ataxia, due to cerebellar cortical degeneration of the Purkinje and granule cells. The underlying genetic cause of A-T is null mutations in the ATM (A-T mutated) gene. ATM is a nuclear serine/threonine kinase that functions as a master regulator of the cellular responses to double strand breaks (DSBs) in the DNA. Upon activation by DSBs, ATM phosphorylates a plethora of downstream targets, including KAP-1 on […]. KAP-1 phosphorylation occurs shortly in response to DSBs and mediates global chromatin relaxation, which facilitates DSB repair. The assay provider and the NCGC have developed assays to discover small molecules that compensate for the loss of ATM and have discovered a probe. The resulting probe is further characterized in several ADME assays. This bioassay provides profiling data on aqueous kinetic solubility (PBS @ pH 7.4) of one of the lead compounds developed in the ATM project. NIH Chemical Genomics Center [NCGC] NIH Molecular Libraries Probe Centers Network [MLPCN] MLPCN Grant: MH089030-01 Assay Submitter (PI): Wei Zheng and Yosef Shiloh
1. […] Concentration of the supernatant was determined by LC-UV or LC-MS/MS

As to `CC(=O)c1c(O)c(C)c(O)c(Cc2c(O)c3c(c(C(=O)/C=C/c4ccccc4)c2O)OC(C)(C)C=C3)c1O`, the solubility is 250 µM (≈ 129 µg/mL).

One may read the solubility as the dissolved amount per volume that the medium holds.
